Laboratory results: PMC2699469 (PLoS Pathogens, 2009)
Peptide text beside a SMILES is read from it. * marks the point of attachment. Palmitoyl = CCCCCCCCCCCCCCCC(=O)*

These molecules were tested on HIV-1 ENV-mediated fusion of Jurkat HXBc2 (effector) with Jurkat E6-1 (target) cells (assay: Cell-cell fusion inhibition assay (DiI/DiD lipophilic probes, flow cytometry)). Conditions: Jurkat E6-1 + Jurkat HXBc2 1:1, co-incubated 6 h, eight peptide concentrations, FACS, Hill-type fit; at least four independent experiments, ± standard deviation.
Assay type: cell-based
Experimental: The protocol utilizing Jurkat E6-1 and Jurkat HXBc2 cells for a cell-cell fusion assay was previously described. In short, Jurkat E6-1 and Jurkat HXBc2 cells were labeled with DiI and DiD lipophilic fluorescent probes, respectively. The two cell populations were co-incubated, in a ratio of 1∶1, for 6 h in the presence of eight different concentrations of the inhibitory peptides. Prior to measurements the cells were washed, spinned, dissolved in PBS, and put on ice. Cells co-incubated without the presence of peptides served as an optimal fusion reference. Unlabeled cells that were handled similarly served as an intrinsic fluorescence control. Cells labeled separately with DiI or DiD were used to adjust the optimal separation of fluorescent signals. Jurkat HXBc2 cells labeled with DiI were co-incubated with Jurkat HXBc2 cells labeled with DiD for a fusion background that was subtracted from the measurements of the experiment. The following alterations were applied to the original protocol: (i) 5 µL of a 1 mg/mL DiI or DiD solution in dimethylsulfoxide (DMSO) was added to 1 mL of 4×10^6 cells/mL Jurkat E6-1 or Jurkat HXBc2 cells, respectively. (ii) For each data point 150,000 events were collected. Measurements were performed on a FACSort machine, upgraded to a FACSCalibur cell analyzer (Becton Dickinson). […] For the fitting, we uploaded the X and Y values of the raw data (after subtracting the background) into a nonlinear least squares regression (curve fitter) program that provided the IC50 value (A of the equation), as well as the c value.

Molecule | IC50
H-SGIDQEQNNLTRLIEAQIHELQLTQWKIKQLLARILK-NH2 [N36 MUTe,g, reference compound] | 936 ± 36 nM
CCCCCCCCCCCCCCCC(=O)N[C@@H](CO)C(=O)NCC(=O)N[C@H](C(=O)N[C@@H](CC(=O)O)C(=O)N[C@@H](CCC(N)=O)C(=O)N[C@@H](CCC(=O)O)C(=O)N[C@@H](CCC(N)=O)C(=O)N[C@@H](CC(N)=O)C(=O)N[C@@H](CC(N)=O)C(=O)N[C@@H](CC(C)C)C(=O)N[C@H](C(=O)N[C@@H](CCCNC(=N)N)C(=O)N[C@@H](CC(C)C)C(=O)N[C@H](C(=O)N[C@@H](CCC(=O)O)C(=O)N[C@@H](C)C(=O)N[C@@H](CCC(N)=O)C(=O)N[C@H](C(=O)N[C@@H](Cc1c[nH]cn1)C(=O)N[C@@H](CCC(=O)O)C(=O)N[C@@H](CC(C)C)C(=O)N[C@@H](CCC(N)=O)C(=O)N[C@@H](CC(C)C)C(=O)N[C@H](C(=O)N[C@@H](CCC(N)=O)C(=O)N[C@@H](Cc1c[nH]c2ccccc12)C(=O)N[C@@H](CCCCN)C(=O)N[C@H](C(=O)N[C@@H](CCCCN)C(=O)N[C@@H](CCC(N)=O)C(=O)N[C@@H](CC(C)C)C(=O)N[C@@H](CC(C)C)C(=O)N[C@@H](C)C(=O)N[C@@H](CCCNC(=N)N)C(=O)N[C@H](C(=O)N[C@@H](CC(C)C)C(=O)N[C@@H](CCCCN)C(N)=O)[C@@H](C)CC)[C@@H](C)CC)[C@@H](C)O)[C@@H](C)CC)[C@@H](C)CC)[C@@H](C)O)[C@@H](C)CC [C16-N36 MUTe,g] (Palmitoyl-SGIDQEQNNLTRLIEAQIHELQLTQWKIKQLLARILK-NH2) | 162 ± 4 nM
CCCCCCCCCCCCCCCC(=O)NCCCC[C@H](NC(=O)[C@H](CC(C)C)NC(=O)[C@@H](NC(=O)[C@H](CCCNC(=N)N)NC(=O)[C@H](C)NC(=O)[C@H](CC(C)C)NC(=O)[C@H](CC(C)C)NC(=O)[C@H](CCC(N)=O)NC(=O)[C@H](CCCCN)NC(=O)[C@@H](NC(=O)[C@H](CCCCN)NC(=O)[C@H](Cc1c[nH]c2ccccc12)NC(=O)[C@H](CCC(N)=O)NC(=O)[C@@H](NC(=O)[C@H](CC(C)C)NC(=O)[C@H](CCC(N)=O)NC(=O)[C@H](CC(C)C)NC(=O)[C@H](CCC(=O)O)NC(=O)[C@H](Cc1c[nH]cn1)NC(=O)[C@@H](NC(=O)[C@H](CCC(N)=O)NC(=O)[C@H](C)NC(=O)[C@H](CCC(=O)O)NC(=O)[C@@H](NC(=O)[C@H](CC(C)C)NC(=O)[C@H](CCCNC(=N)N)NC(=O)[C@@H](NC(=O)[C@H](CC(C)C)NC(=O)[C@H](CC(N)=O)NC(=O)[C@H](CC(N)=O)NC(=O)[C@H](CCC(N)=O)NC(=O)[C@H](CCC(=O)O)NC(=O)[C@H](CCC(N)=O)NC(=O)[C@H](CC(=O)O)NC(=O)[C@@H](NC(=O)CNC(=O)[C@@H](N)CO)[C@@H](C)CC)[C@@H](C)O)[C@@H](C)CC)[C@@H](C)CC)[C@@H](C)O)[C@@H](C)CC)[C@@H](C)CC)C(N)=O [N36 MUTe,g-C16] (H-SGIDQEQNNLTRLIEAQIHELQLTQWKIKQLLARILK(Palmitoyl)-NH2) | 8.8 ± 4 nM
